Source: patent US12077503B2, “Substituted cyclic amides and their use as herbicides” (FMC CORPORATION, priority 2015, dated 2024)

Legend:
Assay type in all cases: in vivo
Kochia (Kochia scoparia) [1] = test: Test A preemergence; settings: Bassia scoparia, pre-emergence, 240 h, preemergence, 0 to 100 scale where 0 is no effect and 100 is complete control, read-out: Kochia plant response rating; for pest or weed control at 125 g/ha: 125 g ai/ha, visual injury rating, approximately 10 d; for pest or weed control at 500 g/ha: 500 g ai/ha
Summary of the method: (§1)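 Compounds were formulated in a non-phytotoxic solvent mixture with surfactant and applied as a preemergence directed soil spray after seeding, or sprayed postemergence over plants 2 to 10 cm tall at the one- to two-leaf stage. Evaluation after about 10 d compared treated with untreated controls, using a scale from 0 (no effect) to 100 (complete control).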

[2] = tested on: barnyardgrass (Echinochloa crus-galli); test: Test A preemergence; settings: Echinochloa crus-galli, pre-emergence, 240 h, preemergence, 0 to 100 scale where 0 is no effect and 100 is complete control, read-out: Barnyardgrass plant response rating; for pest or weed control at 125 g/ha: 125 g ai/ha, visual injury rating, approximately 10 d; for pest or weed control at 500 g/ha: 500 g ai/ha
Summary of the method: as §1

[3] = tested on: giant foxtail (Setaria faberii); test: Test A preemergence; settings: Setaria faberi, pre-emergence, 240 h, preemergence, 0 to 100 scale where 0 is no effect and 100 is complete control, read-out: Foxtail, Giant plant response rating; for pest or weed control at 125 g/ha: 125 g ai/ha, visual injury rating, approximately 10 d; for pest or weed control at 500 g/ha: 500 g ai/ha
Summary of the method: as §1

[4] = tested on: pigweed (Amaranthus retroflexus); test: Test A preemergence; settings: Amaranthus retroflexus, pre-emergence, 240 h, preemergence, 0 to 100 scale where 0 is no effect and 100 is complete control, read-out: Pigweed plant response rating; for pest or weed control at 125 g/ha: 125 g ai/ha, visual injury rating, approximately 10 d; for pest or weed control at 500 g/ha: 500 g ai/ha
[5] = tested on: ragweed (common ragweed, Ambrosia elatior); test: Test A preemergence; settings: Ambrosia artemisiifolia, pre-emergence, 240 h, preemergence, 0 to 100 scale where 0 is no effect and 100 is complete control, read-out: Ragweed plant response rating; for pest or weed control at 125 g/ha: 125 g ai/ha, visual injury rating, approximately 10 d; for pest or weed control at 500 g/ha: 500 g ai/ha
Summary of the method: as §1

[6] = tested on: ryegrass, Italian (Italian ryegrass, Lolium multiflorum); test: Test A preemergence; settings: Lolium multiflorum, pre-emergence, 240 h, preemergence, 0 to 100 scale where 0 is no effect and 100 is complete control, read-out: Ryegrass, Italian plant response rating; for pest or weed control at 125 g/ha: 125 g ai/ha, visual injury rating, approximately 10 d; for pest or weed control at 500 g/ha: 500 g ai/ha
Summary of the method: as §1

[7] = tested on: Galium (catchweed bedstraw, Galium aparine); test: Test A postemergence; settings: Galium, post-emergence, 240 h, postemergence; for pest or weed control at 125 g/ha: 125 g ai/ha, visual injury vs untreated controls after approx. 10 d, 0 = no effect, 100 = complete control, read-out: Galium plant response rating (0 to 100 scale); for pest or weed control at 500 g/ha: 500 g ai/ha, 0 to 100 scale, 0 is no effect, 100 is complete control, read-out: Galium plant response rating
Summary of the method: as §1

Kochia (Kochia scoparia) [8] = test: Test A postemergence; settings: Bassia scoparia, post-emergence, 240 h, postemergence; for pest or weed control at 125 g/ha: 125 g ai/ha, visual injury vs untreated controls after approx. 10 d, 0 = no effect, 100 = complete control, read-out: Kochia plant response rating (0 to 100 scale); for pest or weed control at 500 g/ha: 500 g ai/ha, 0 to 100 scale, 0 is no effect, 100 is complete control, read-out: Kochia plant response rating
Summary of the method: as §1

[9] = tested on: blackgrass (Alopecurus myosuroides); test: Test A postemergence; settings: Alopecurus myosuroides, post-emergence, 240 h, postemergence; for pest or weed control at 125 g/ha: 125 g ai/ha, visual injury vs untreated controls after approx. 10 d, 0 = no effect, 100 = complete control, read-out: Blackgrass plant response rating (0 to 100 scale); for pest or weed control at 500 g/ha: 500 g ai/ha, 0 to 100 scale, 0 is no effect, 100 is complete control, read-out: Blackgrass plant response rating
Summary of the method: as §1

corn (Zea mays) = test: Test A postemergence; settings: Zea mays, post-emergence, 240 h, postemergence; for plant injury at 125 g/ha: 125 g ai/ha, visual injury vs untreated controls after approx. 10 d, 0 = no effect, 100 = complete control, read-out: Corn plant response rating (0 to 100 scale); for plant injury at 500 g/ha: 500 g ai/ha, 0 to 100 scale, 0 is no effect, 100 is complete control, read-out: Corn plant response rating
Summary of the method: as §1

[10] = tested on: giant foxtail (Setaria faberii); test: Test A postemergence; settings: Setaria faberi, post-emergence, 240 h, postemergence; for pest or weed control at 125 g/ha: 125 g ai/ha, visual injury vs untreated controls after approx. 10 d, 0 = no effect, 100 = complete control, read-out: Foxtail, Giant plant response rating (0 to 100 scale); for pest or weed control at 500 g/ha: 500 g ai/ha, 0 to 100 scale, 0 is no effect, 100 is complete control, read-out: Foxtail, Giant plant response rating
Summary of the method: as §1

[11] = tested on: pigweed (Amaranthus retroflexus); test: Test A postemergence; settings: Amaranthus retroflexus, post-emergence, 240 h, postemergence; for pest or weed control at 125 g/ha: 125 g ai/ha, visual injury vs untreated controls after approx. 10 d, 0 = no effect, 100 = complete control, read-out: Pigweed plant response rating (0 to 100 scale); for pest or weed control at 500 g/ha: 500 g ai/ha, 0 to 100 scale, 0 is no effect, 100 is complete control, read-out: Pigweed plant response rating
Summary of the method: as §1

[12] = tested on: ragweed (common ragweed, Ambrosia elatior); test: Test A postemergence; settings: Ambrosia artemisiifolia, post-emergence, 240 h, postemergence; for pest or weed control at 125 g/ha: 125 g ai/ha, visual injury vs untreated controls after approx. 10 d, 0 = no effect, 100 = complete control, read-out: Ragweed plant response rating (0 to 100 scale); for pest or weed control at 500 g/ha: 500 g ai/ha, 0 to 100 scale, 0 is no effect, 100 is complete control, read-out: Ragweed plant response rating
Summary of the method: as §1

[13] = tested on: ryegrass, Italian (Italian ryegrass, Lolium multiflorum); test: Test A postemergence; settings: Lolium multiflorum, post-emergence, 240 h, postemergence; for pest or weed control at 125 g/ha: 125 g ai/ha, visual injury vs untreated controls after approx. 10 d, 0 = no effect, 100 = complete control, read-out: Ryegrass, Italian plant response rating (0 to 100 scale); for pest or weed control at 500 g/ha: 500 g ai/ha, 0 to 100 scale, 0 is no effect, 100 is complete control, read-out: Ryegrass, Italian plant response rating
Summary of the method: as §1

[14] = tested on: wheat (Triticum aestivum); test: Test A postemergence; settings: Triticum aestivum, post-emergence, 240 h, postemergence; for plant injury at 125 g/ha: 125 g ai/ha, visual injury vs untreated controls after approx. 10 d, 0 = no effect, 100 = complete control, read-out: Wheat plant response rating (0 to 100 scale); for plant injury at 500 g/ha: 500 g ai/ha, 0 to 100 scale, 0 is no effect, 100 is complete control, read-out: Wheat plant response rating
Summary of the method: as §1

Compound	pest or weed control at 125 g/ha (Kochia (Kochia scoparia) [1])	pest or weed control at 500 g/ha (Kochia (Kochia scoparia) [1])	pest or weed control at 125 g/ha [2]	pest or weed control at 500 g/ha [2]	pest or weed control at 125 g/ha [3]	pest or weed control at 500 g/ha [3]	pest or weed control at 125 g/ha [4]	pest or weed control at 500 g/ha [4]	pest or weed control at 125 g/ha [5]	pest or weed control at 500 g/ha [5]	pest or weed control at 125 g/ha [6]	pest or weed control at 500 g/ha [6]	pest or weed control at 125 g/ha [7]	pest or weed control at 500 g/ha [7]	pest or weed control at 125 g/ha (Kochia (Kochia scoparia) [8])	pest or weed control at 500 g/ha (Kochia (Kochia scoparia) [8])	pest or weed control at 125 g/ha [9]	pest or weed control at 500 g/ha [9]	plant injury at 125 g/ha (corn (Zea mays))	plant injury at 500 g/ha (corn (Zea mays))	also measured
COc1cc(C(F)(F)F)ccc1[C@H]1CNC(=O)[C@@H]1C(=O)Nc1ccccc1F [Compound 1202]	20%	60%	90%	90%	50%	90%	0%	0%	0%	90%	0%	60%	0%	40%	30%	40%	0%	40%	20%	30%	pest or weed control at 125 g/ha [10]: 70%; pest or weed control at 500 g/ha [10]: 90%; pest or weed control at 125 g/ha [11]: 0%; pest or weed control at 500 g/ha [11]: 20%; pest or weed control at 125 g/ha [12]: 0%; pest or weed control at 500 g/ha [12]: 20%; pest or weed control at 125 g/ha [13]: 0%; pest or weed control at 500 g/ha [13]: 0%; plant injury at 125 g/ha [14]: 0%; plant injury at 500 g/ha [14]: 50%
COc1ccc([C@H]2CN(C)C(=O)[C@@H]2C(=O)Nc2cccc(F)c2F)c(OC)c1 [Compound 1209]	60%	90%	90%	90%	90%	100%	0%	0%	60%	90%	0%	50%	0%	30%	0%	50%	0%	30%	0%	0%	pest or weed control at 125 g/ha [10]: 80%; pest or weed control at 500 g/ha [10]: 90%; pest or weed control at 125 g/ha [11]: 0%; pest or weed control at 500 g/ha [11]: 0%; pest or weed control at 125 g/ha [12]: 0%; pest or weed control at 500 g/ha [12]: 0%; pest or weed control at 125 g/ha [13]: 0%; pest or weed control at 500 g/ha [13]: 20%; plant injury at 125 g/ha [14]: 0%; plant injury at 500 g/ha [14]: 20%
